From patent US9169241B2, “Quinolinyloxyphenylsulfonamides” (Max-Planck-Gesellschaft Zur Forderung der Wissenschaften …, priority 2009, dated 2015) come the findings set out here.

Assay [1] has as its target T1, wild type AXL (wtAXL) receptor tyrosine kinase (Homo sapiens, UniProt P30530).
T1 construct: WtAXL cDNA was cloned into vector pLXSN(ESK) and transfected into Phoenix E packaging cells; expressed in transfected cells; host or cells: NIH3T3 N7 (mouse fibroblasts), retrovirally infected, clone 22
T1 sequence (P30530 26-894): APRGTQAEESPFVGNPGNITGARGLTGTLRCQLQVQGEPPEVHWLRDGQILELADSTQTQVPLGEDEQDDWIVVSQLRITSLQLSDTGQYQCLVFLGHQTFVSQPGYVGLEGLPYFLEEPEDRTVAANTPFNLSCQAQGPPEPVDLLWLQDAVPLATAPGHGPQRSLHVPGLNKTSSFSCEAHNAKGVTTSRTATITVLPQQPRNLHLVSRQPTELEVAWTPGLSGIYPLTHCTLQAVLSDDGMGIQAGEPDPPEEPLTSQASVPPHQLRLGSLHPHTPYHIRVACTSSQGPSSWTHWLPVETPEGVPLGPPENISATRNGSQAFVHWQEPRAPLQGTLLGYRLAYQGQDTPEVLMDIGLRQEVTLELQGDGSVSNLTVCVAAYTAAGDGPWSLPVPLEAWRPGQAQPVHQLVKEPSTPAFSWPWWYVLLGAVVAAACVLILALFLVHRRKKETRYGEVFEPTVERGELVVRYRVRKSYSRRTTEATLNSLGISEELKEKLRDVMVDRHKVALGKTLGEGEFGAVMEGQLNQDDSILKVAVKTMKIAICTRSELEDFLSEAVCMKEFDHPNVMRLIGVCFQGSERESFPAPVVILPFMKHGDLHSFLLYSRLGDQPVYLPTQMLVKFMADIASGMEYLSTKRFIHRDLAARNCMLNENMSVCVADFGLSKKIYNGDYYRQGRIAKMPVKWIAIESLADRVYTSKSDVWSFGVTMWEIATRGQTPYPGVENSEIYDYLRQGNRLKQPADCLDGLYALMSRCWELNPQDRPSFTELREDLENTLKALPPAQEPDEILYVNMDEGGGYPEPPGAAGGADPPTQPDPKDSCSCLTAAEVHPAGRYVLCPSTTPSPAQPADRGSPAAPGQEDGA
As to the kind of experiment: NIH-3T3-AXL cellular kinase assay (pY-AXL-ELISA). The settings on record: NIH-3T3-AXL (clone 22) cells, serum depleted, compounds 1 h; Table Ia. The class given is cell-based. In outline: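 NIH3T3 cells stably expressing human wild-type AXL (retroviral, puromycin-selected clones) were treated with serial compound dilutions for 1 h and lysed. AXL tyrosine phosphorylation was measured by ELISA on the lysates: biotinylated 4G10 anti-phosphotyrosine, streptavidin-alkaline phosphatase, AttoPhos fluorescence at 430/560 nm after 90 min.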

A further assay concerns Hs578T. As to the kind of experiment: Wound healing migration assay. The settings on record: Homo sapiens, Hs-578T; HS578T cell line; Table Ib. Format: cell-based. An outline of the steps:
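Cells seeded at 150000/24 well, grown to monolayer overnight, scratched with a pipette tip, then treated with compound at 12.5, 6.25 or 3.125 μM versus DMSO. Stopped by crystal violet fixation at 48-72 h once control wounds closed; IC50 taken as 50% wound size between t0 and t48 or t72.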

On to `COc1cc2c(Oc3c(Cl)cc(NS(=O)(=O)c4c(F)cccc4F)cc3Cl)ccnc2cc1OCCCN1CCC(C)CC1` [Example 209, N-(3,5-Dichloro-4-{6-methoxy-7-[3-(4-methyl-piperidin-1-yl)-propoxy]-quinolin-4-yloxy}-phenyl)-2,6-difluoro-benzenesulfonamide], for which the 50% inhibitory concentration (IC50) in assay [1] is below 0.5 µM; in the assay with Hs578T it was at most 12.5 µM.
For `COc1cc2c(Oc3c(Cl)cc(NS(=O)(=O)c4ccccc4C(F)(F)F)cc3Cl)ccnc2cc1OCCCN1CCC(C)CC1` [Example 210, N-(3,5-Dichloro-4-{6-methoxy-7-[3-(4-methyl-piperidin-1-yl)-propoxy]-quinolin-4-yloxy}-phenyl)-2-trifluoromethyl-benzenesulfonamide], the 50% inhibitory concentration (IC50) in assay [1] is below 0.5 µM; with Hs578T, at most 12.5 µM.
